# Test results: patent publication US6756382B2, “Amide substituted imidazoquinolines” (3M Innovative Properties Company, priority 1999, dated 2004)
# Columns and labels:
# [1] = tested on: tumor necrosis factor (α); test: Cytokine induction in human cells: tumor necrosis factor (α) secreted by PBMCs, ELISA; format: cell-based; settings: PBMC, incubated 18 to 24 hours, TNF determined by ELISA, read-out: Lowest Effective Concentration (μM) Tumor Necrosis Factor
# From the text: (§1) An in vitro human blood cell system was used to assess cytokine induction by compounds of the invention. Activity is based on the measurement of interferon and tumor necrosis factor (α) (IFN and TNF, respectively) secreted into culture media as described by Testerman et. al. In “Cytokine Induction by the Immunomodulators Imiquimod and S-27609”, Journal of Leukocyte Biology, 58, 365-372 (September, 1995).
# (§2) Whole blood is collected by venipuncture into EDTA vacutainer tubes from healthy human donors. Peripheral blood mononuclear cells (PBMCs) are separated from whole blood by density gradient centrifugation using Histopaque®-1077 (Sigma Chemicals, St. Louis, Mo.). The PBMCs are suspended at 3-4×10^6 cells/mL in RPMI 1640 medium containing 10% fetal bovine serum, 2 mM L-glutamine and 1% penicillin/streptomycin solution (RPMI complete). The PBMC suspension is added to 48 well flat bottom sterile tissue culture plates (Costar, Cambridge, Mass. or Becton Dickinson Labware, Lincoln Park, N.J.) containing an equal volume of RPMI complete media containing test compound.
# (§3) The compounds are solubilized in dimethyl sulfoxide (DMSO). The DMSO concentration should not exceed a final concentration of 1% for addition to the culture wells.
# (§4) The solution of test compound is added at 60 μM to the first well containing RPMI complete and serial (three fold or ten fold) dilutions are made. The PBMC suspension is then added to the wells in an equal volume, bringing the test compound concentrations to the desired range. The final concentration of PBMC suspension is 1.5-2×10^6 cells/mL. The plates are covered with sterile plastic lids, mixed gently and then incubated for 18 to 24 hours at 37° C. in a 5% carbon dioxide atmosphere.
# (§5) Following incubation the plates are centrifuged for 5-10 minutes at 1000 rpm (˜200×g) at 4° C. The cell culture supernatant is removed with a sterile polypropylene pipet and transferred to sterile polypropylene tubes. Samples are maintained at −30 to −70° C. until analysis. The samples are analyzed for interferon (α) by either ELISA or bioassay and for tumor necrosis factor (α) by ELISA.
# Tumor necrosis factor (α) (TNF)concentration is determined using ELISA kits available from Genzyme, Cambridge, Mass.; R&D Systems, Minneapolis, Minn.; or Pharmingen, San Diego, Calif.
# (§6) The table below lists the lowest concentration found to induce interferon and the lowest concentration found to induce tumor necrosis factor for each compound. […] Unless otherwise indicated, the interferon biosynthesis was determined by ELISA.
# interferon (α) = test: Cytokine induction in human cells: interferon secreted by PBMCs, ELISA; format: cell-based; settings: PBMC, incubated 18 to 24 hours, interferon determined by ELISA, read-out: Lowest Effective Concentration (μM) Interferon
# From the text: as §1, §2, §3, §4, §5
# Interferon (α) concentration is determined by ELISA using a Human Multi-Species kit from PBL Biomedical Laboratories, New Brunswick, N.J.
# as §6
Compound,minimal effective concentration [1],minimal effective concentration (interferon (α))
Nc1nc2ccccc2c2c1ncn2CCCCNC(=O)c1ccc([N+](=O)[O-])o1 [Example 96],10 µM,0.37 µM
CC(=O)N(CCCCn1cnc2c(N)nc3ccccc3c21)Cc1cc(Cl)cc(Cl)c1 [Example 128],1.11 µM,3.33 µM
CC(=O)NCCCCn1cnc2c(N)nc3ccccc3c21 [Example 88],> 30 µM,10 µM
Nc1nc2ccccc2c2c1ncn2CCCCNC(=O)c1ccc(CN2CCOCC2)cc1 [Example 103],10 µM,0.37 µM
CC(=O)N(CCCCn1cnc2c(N)nc3ccccc3c21)Cc1ccccc1C [Example 144],> 30 µM,1.11 µM
COC(=O)CCCCC(=O)NCCCCn1cnc2c(N)nc3ccccc3c21 [Example 95],30 µM,3.33 µM
C=CCCC(=O)NCCCCn1cnc2c(N)nc3ccccc3c21 [Example 116],10 µM,0.37 µM
COCCc1nc2c(N)nc3ccccc3c2n1CCCCNC(=O)c1ccccc1C [Example 151],> 10 µM,0.0001 µM
"CCc1nc2c(N)nc3ccccc3c2n1CCCCNC(=O)c1ccccc1 [Example 5, N^1-[4-(4-Amino-2-ethyl-1H-imidazo[4,5-c]quinolin-1-yl)butyl]benzamide]",0.37 µM,0.04 µM
Nc1nc2ccccc2c2c1ncn2CCCCNC(=O)c1ccco1 [Example 85],10 µM,1.11 µM
CC(=O)CCCC(=O)NCCCCn1cnc2c(N)nc3ccccc3c21 [Example 118],> 30 µM,1.11 µM
CC(=O)N(CCCCn1cnc2c(N)nc3ccccc3c21)CCCc1ccccc1 [Example 136],> 30 µM,1.11 µM
CC(=O)N(CCCCn1cnc2c(N)nc3ccccc3c21)Cc1cc(Cl)ccc1[N+](=O)[O-] [Example 126],> 30 µM,3.33 µM
COCCc1nc2c(N)nc3ccccc3c2n1CCCCNC(=O)CCCCCCC(=O)OC [Example 159],1 µM,0.01 µM
Nc1nc2ccccc2c2c1ncn2CCCCNC(=O)c1cc(Cl)cc(Cl)c1 [Example 111],> 30 µM,1.11 µM
COCCc1nc2c(N)nc3ccccc3c2n1CCCCNC(=O)[C@@H]1C[C@H]1c1ccccc1 [Example 153],0.1 µM,0.0001 µM
C#CCCCCCCCCC(=O)NCCCCn1cnc2c(N)nc3ccccc3c21 [Example 119],> 30 µM,> 30 µM
CCc1ccc(CN(CCCCn2cnc3c(N)nc4ccccc4c32)C(C)=O)o1 [Example 133],> 30 µM,3.33 µM
COC(=O)CCCC(=O)NCCCCn1cnc2c(N)nc3ccccc3c21 [Example 117],> 30 µM,3.33 µM
COCCc1nc2c(N)nc3ccccc3c2n1CCCCNC(=O)C=C(C)C [Example 148],1 µM,0.01 µM
COc1ccccc1CCNCc1ccc(C(=O)NCCCCn2cnc3c(N)nc4ccccc4c32)cc1 [Example 106],> 30 µM,3.33 µM
CC(=O)N(CCCCn1cnc2c(N)nc3ccccc3c21)Cc1ccco1 [Example 134],> 30 µM,0.37 µM
CCCCCCCCN(CCCCn1cnc2c(N)nc3ccccc3c21)C(C)=O [Example 137],> 30 µM,10 µM

Compound,minimal effective concentration [1],minimal effective concentration (interferon (α))
COC(=O)c1ccc(C(=O)NCCCCn2cnc3c(N)nc4ccccc4c32)cc1 [Example 100],3.33 µM,10 µM
COC(=O)CCCCCCCCC(=O)NCCCCn1cnc2c(N)nc3ccccc3c21 [Example 101],> 30 µM,3.33 µM
COCCc1nc2c(N)nc3ccccc3c2n1CCCCNC(=O)c1cccc2ccccc12 [Example 154],> 10 µM,0.0001 µM
Nc1nc2ccccc2c2c1ncn2CCCCNC(=O)c1ccc([N+](=O)[O-])cc1 [Example 87],30 µM,3.33 µM
CC(=O)N(CCCCn1cnc2c(N)nc3ccccc3c21)Cc1cc([N+](=O)[O-])ccc1Cl [Example 125],> 30 µM,1.11 µM
"Cc1nc2c(N)nc3ccccc3c2n1CCCCNC(=O)c1ccccc1 [Example 4, N^1-[4-(4-Amino-2-methyl-1H-imidazo[4,5-c]quinolin-1-yl)butyl]benzamide]",0.37 µM,0.04 µM
"Nc1nc2ccccc2c2c1ncn2CCCCNC(=O)c1cnc2ccccc2c1 [Example 40, N^3-[4-(4-Amino-1H-imidazo[4,5-c]quinolin-1-yl)butyl]-3-quinolinecarboxamide]",30 µM,0.37 µM
"COCCc1nc2c(N)nc3ccccc3c2n1CCCCNC(=O)C1CCCN1S(=O)(=O)c1ccc(C(C)(C)C)cc1 (stereo in doubt) [Example 185, N-{4-[4-amino-2-(2-methoxyethyl)-1H-imidazo[4,5-c]quinolin-1-yl]butyl}-1-[(4-tert-butylphenyl)sulfonyl]-L-prolinamide]",3.33 µM,1.11 µM
Nc1nc2ccccc2c2c1ncn2CCCCNC(=O)c1cccc(Br)c1 [Example 89],10 µM,1.11 µM
Nc1nc2ccccc2c2c1ncn2CCCCNC(=O)c1ccc(CN2CCN(C(c3ccccc3)c3ccccc3)CC2)cc1 [Example 104],> 30 µM,> 30 µM
CC(=O)N(CCCCn1cnc2c(N)nc3ccccc3c21)Cc1ccoc1 [Example 135],> 30 µM,0.12 µM
C#CCCC(=O)NCCCCn1cnc2c(N)nc3ccccc3c21 [Example 115],30 µM,1.11 µM
CCCCOc1ccc(CN(CCCCn2cnc3c(N)nc4ccccc4c32)C(C)=O)cc1 [Example 123],> 30 µM,3.33 µM
CC(=O)N(CCCCn1cnc2c(N)nc3ccccc3c21)Cc1ccc(Br)cc1 [Example 121],> 30 µM,1.11 µM
"CCCCc1nc2c(N)nc3ccccc3c2n1CCCNC(=O)c1cc2ccccc2cn1 [Example 188, N-[3-(4-amino-2-butyl-1H-imidazo[4,5-c]quinolin-1-yl)propyl]isoquinoline-3-carboxamide]",1.11 µM,0.37 µM
CC(=O)N(CCCCn1cnc2c(N)nc3ccccc3c21)Cc1ccc([N+](=O)[O-])cc1 [Example 140],> 30 µM,1.11 µM
Nc1nc2ccccc2c2c1ncn2CCCCNC(=O)c1cccs1 [Example 86],10 µM,1.11 µM
COc1cc(CN(CCCCn2cnc3c(N)nc4ccccc4c32)C(C)=O)cc(OC)c1OC [Example 146],> 30 µM,3.33 µM
COc1ccc(OC)c(CN(CCCCn2cnc3c(N)nc4ccccc4c32)C(C)=O)c1 [Example 130],10 µM,1.11 µM
COCCc1nc2c(N)nc3c(c2n1CCCCNC(=O)Cc1ccccc1)CCCC3 [Example 174],1 µM,0.001 µM
COc1ccc(CC(=O)NCCCCn2cnc3c(N)nc4ccccc4c32)cc1 [Example 98],10 µM,1.11 µM
COCCc1nc2c(N)nc3ccccc3c2n1CCCCNC(=O)c1ccc(OC)c(OC)c1 [Example 158],1 µM,0.001 µM
COc1ccc(CN(CCCCn2cnc3c(N)nc4ccccc4c32)C(C)=O)c(OC)c1OC [Example 145],> 30 µM,1.11 µM
